Data on 1 compound can be found in patent US20240226165A1, “Methods of Producing Improved Immune Cell Populations” (Prescient Therapeutics Ltd, priority 2021, published 2024).

The subject of one data set is murine T-cells. The conditions noted are these: extremely low concentrations. The text has this: (§1) Mouse splenocytes were activated using CD3/CD28 antibodies and cultured in the presence of recombinant IL-2 and IL-7 for 24 hrs prior to transduction with CAR-T vectors.
(§2) Cells were stained using fluorochrome labelled antibodies against CD4, CD8, CD44, CD62L to phenotype the murine CAR-T-cells following manufacturing. Human CAR-T-cells were phenotyped using fluorochrome-conjugated antibodies against CD4, CD8, CD45RA, CD45RO, CD44, CD62L, CCR7, CD27, PD-1 and CD69. A fixable live/dead dye was used to distinguish between live or dead cells.

A further data set has as its system murine CAR-T-cells. Put plainly: Flow cytometry phenotyping of murine CAR-T-cells after manufacturing. Type of data set: cell-based, mouse.
Excerpt: as §1, §2
Splenocytes from C57BL/6 donor mice were activated with 1 μg mL^−1 anti-CD3, 1 μg mL-1 anti-CD28 in the presence of IL-2 and 200 pg mL-1 IL-7 for 1 day then ficoll gradient treatment. Cells were transduced in plates coated with 1 μg mL of retronectin using supernatant produced from a GP+86 LXSN-anti-Her2 CAR packaging cell line. The transduced cells were then expanded in complete RPMI with the same concentration of IL-2 and IL-7 with or without 5 μM of PTX-200. Fresh IL-2 and IL-7 in complete media were added to all CAR-T-cells 2 days post-transduction.
A general note: A flow cytometer gives signals particle by particle.

The test system of data set [1] is human CAR-T-cells. Put plainly: Flow cytometry phenotyping of human CAR-T-cells from PBMC donors. The format is cell-based. On the procedure:
Human PBMCs were extracted from buffy packs (Australian Red Cross Blood Service). They were activated using anti-CD3 antibody (OKT3) for 2 days before transduction for 48 hours, all in the presence of IL-2.
Buffy coats from three donors were processed to isolate PBMCs, where 50 million PBMCs were cultured for 2 days in the presence of media containing anti-CD3 antibodies (OKT3, 1.5 μg per mL) and recombinant IL-2 (600 U/mL). […] Samples were collected either 24 or 72 hours later.

Data set [2] concerns human CAR-T-cells. Put plainly: Mass spectrometry of cellular proteome. Type of data set: cell-based. The conditions noted are these: treatment of PBMCs.
Excerpt: At each time point, cells were collected and washed three times with cold DPBS before cell lysis for global proteomic analysis.
Cells were homogenised/solubilised containing protease and phosphatase inhibitor (HALT) by tip-probe sonication, quantified, normalized and reduced (dithiothreitol, DTT), alkylated (iodoacetamide), before Sera-Mag Speed Bead-based protein digestion with LysC (enzyme:substrate 1:100, Wako Pure Chemical Industries) trypsin (enzyme:substrate 1:50). […] Peptides desalted (SDB-RPS Stage-Tips), and analysed for global cellular proteome.
Spectra acquired in data dependent acquisition on an Orbitrap Q-Exactive HF-X mass spectrometer coupled to an Easy-nLC 1200 (Thermo Fisher Scientific) ultra-high pressure liquid chromatography (UHPLC) pump. […] The most intense MS1 ions were selected for MS2 analysis, fragmented by higher-energy collisional dissociation with normalized collision energy of 33. Precursors were filtered according to charge state≥2, AGC set at 1e5 for MS/MS, with monoisotopic peak used.
Mass spectra were pre-processed and processed using MaxQuant (1.6.14). […]
For further data analysis, the normalized intensities were converted into log 2 ratios of the intensities over the median intensity measured for each protein across each sample group, with statistical analyses performed using Student's T-test or ANOVA (p-value<0.05 was considered significant). […]
A further data set deals with MC-38-hHer2. Put plainly: MC-38-hHer2 colon cancer model in hHer2 transgenic mice. The format is in vivo, mouse.
Data set [3] can be described thus: Immune subsets in spleen and tumour, MC-38-hHer2 model. The format is in vivo, mouse. Particulars: TCN-P as adjuvant in the presence of CAR-T-cells. The source says:
Blood of mice was collected directly into EDTA-containing tube via submandibular bleeding at day 8-9 post-treatment. At the experimental endpoint, various organs including tumour, draining lymph node (dLN) and spleen were collected immediately after euthanasia. Single cell suspension from the dLN and spleen were achieved by processing these organs through a 70 μm filter. For splenocytes, red blood cells were lysed with ACK lysis buffer. Solid tumours were manually sliced and digested with DMEM containing 1 mg mL^−1 type IV collagenase and 0.02 mg mL^−1 DNAse for 30 mins at 37° C. in a rocking incubation at 120 r.p.m. Digestion was neutralised with DMEM and processed through a 70 μm filter and resuspended in either FACS buffer or complete RPMI media. […]
Cells were blocked for 15 mins at room temperature with Fc receptor block (clone 2.4G2 of the hybridoma supernatant diluted 1:50 with FACS buffer). […] The number of target T-cell population was calculated by using: the number of input beads in the sample/bead events×events of targeted population.

Entries after “also recorded” stand apart in the source; their conditions may differ.

In the case of `CN1N=C(N)c2cn([C@@H]3O[C@H](COP(=O)(O)O)[C@@H](O)[C@H]3O)c3ncnc1c23` [TCN-P, triciribine 5′-monophosphate], in the data set with murine T-cells, the “tolerability by transduced T-cells” value is “well-tolerated”. Besides, the “ratio of CD4:CD8 T-cells” value in the data set with murine CAR-T-cells (TCN-P conditioning during CAR-T manufacturing, prior to administration) is recorded as “unchanged”. Further, in the data set with murine CAR-T-cells (TCN-P preconditioning during CAR-T manufacturing), the “central memory CD8+ CAR-T-cells (CD44+ CD62L+)” value was “significant enrichment”. Also, in the data set with human CAR-T-cells [1] (24 hrs, n=3 donors, control/vehicle 8%), the “effector T (TE) cells in CD8+ CAR-T-cells” value is reported as 5%. In the data set with human CAR-T-cells [1] (24 hrs, n=3 donors, control/vehicle 11%), the “Central memory T (TCM) cells (CD45RO+ CD62L+) in CD8+ CAR-T-cells, mean” value was 17%. Besides, the “Central memory T (TCM) cells (CD45RO+ CD62L+) in CD8+ CAR-T-cells” value with human CAR-T-cells [1] (3 days, after 24 hour treatment, n=3, control/vehicle 9%) is reported as 16%. In the data set on human CAR-T-cells [1] (3 days, after 24 hour treatment, n=3, control/vehicle 35%), the “effector T (TE) cells in CD8+ CAR-T-cells” value is given as 23%. For the same compound, the “CCR7+ TCM, mean” value in the data set with human CAR-T-cells [1] (CD8+ CAR-T, pre-treatment, from 9%) worked out at 16%. Also, the “CCR7+ TE” value with human CAR-T-cells [1] (CD8+ CAR-T, pre-treatment, from 35%) is listed as 23%. Moreover, the “TCM or TE phenotype of CD4+ CAR-T-cells” value with human CAR-T-cells [1] (pre-treatment, 24 hrs and 3 days) was “did not have any effect”. The “TREG proportions (CD4+CD25+FoxP3+) in CD4+ transduced CAR-T-cells” value in the data set on human CAR-T-cells [1] (pre-treatment, low concentrations) is “reduced”. Further, in the data set with human CAR-T-cells [2], the “enrichment of proteins associated with interferon signalling and anti-viral activity” value is “increased enrichment”; the “proteins associated with metabolism and RNA processing” value is reported as “enriched”. Besides, the “tumour control / tumour killing, tumour sizes until day 14” value in the data set with MC-38-hHer2 (25 mg/kg TCN-P adjuvant every 3 days following Her2-targeting CAR-T administration) is on record as “significantly improved”. The median survival duration in the data set with MC-38-hHer2 (TCN-P 25 mg/Kg, 20×10^6 CAR-T-cells, control group 15 days) was found to be 20 days. Further, in the data set on MC-38-hHer2 (TCN-P alone, 5, 25 or 50 mg/Kg i.p. every 3-4 days), the “anti-tumour effect (tumour growth)” value was “dosage dependent anti-tumour effect; also recorded: strong anti-tumour effect”. In addition, the “reduction of intratumoral Tregs” value in data set [3] came out at 50%.
